Data taken from patent US20170334899A1, “AMINO-SUBSTITUTED ISOTHIAZOLES” (Bayer Pharma Aktiengesellschaft, priority 2014, published 2017).
Each block holds one compound with its values, some of them ahead of it.

Experiments:
[1] = target: T1, CDK2/CycE (Homo sapiens, UniProt P24941); experiment: CDK2/CycE kinase assay (TR-FRET); assay type: biochemical; details: avg, read-out: CDK2 avg (IC50 [mol/l])
T1 construct: GST; purchased ProQinase GmbH (Freiburg, Germany); host or cells: insect cells (Sf9)
Outline: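 Read-out is a TR-FRET 665/620 nm emission ratio from EDTA-stopped reactions detected with anti-pRB(pSer807/pSer811), Eu-labelled anti-mouse IgG and streptavidin-XL665, scaled between no-enzyme and uninhibited wells. Reaction: Sf9-expressed GST-CDK2/GST-CycE, 15 min compound preincubation, 10 μM ATP, 0.75 μM biotin-peptide, 25 min, 22° C., pH 8.0 Tris buffer.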

[2] = test system: human cervical tumor cell line HeLa (ATCC CCL-2); experiment: SAC-Formation - Nocodazole-Induced Assay; assay type: cell-based; details: Homo sapiens, HeLa, 24 h, HeLa cells, nocodazole 0.1 μg/ml together with test compound, decrease of mitotic cells (phospho-histone H3 Ser10)
Outline: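 Loss of phospho-histone H3 Ser10-positive cells, counted against Hoechst-stained nuclei by high-content imaging, marked mitotic breakthrough. Compounds (0.005–20 μM, 0.5% DMSO) were co-dosed with 0.1 μg/ml nocodazole onto HeLa cells for 24 h at 37 °C. Curves were fitted with a four-parameter Hill equation.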

Structure (SMILES): Cc1nsc(Nc2cnc(C(F)(F)F)cn2)c1C(=O)Nc1ccc(F)c(OC[C@@H]2CCN(CC(F)F)C2)c1 [Example 403, N-(3-{[(3R)-1-(2,2-difluoroethyl)pyrrolidin-3-yl]methoxy}-4-fluorophenyl)-3-methyl-5-{[5-(trifluoromethyl)pyrazin-2-yl]amino}-1,2-thiazole-4-carboxamide]
IC50 [1]: > 20000 nM
IC50 [2]: 30 nM

Structure (SMILES): Cc1nsc(Nc2cnc(C(F)(F)F)cn2)c1C(=O)Nc1ccc(F)c(O[C@@H]2CCN(CC(F)F)C2)c1 [Example 412, N-(3-{[(3R)-1-(2,2-Difluoroethyl)pyrrolidin-3-yl]oxy}-4-fluorophenyl)-3-methyl-5-{[5-(trifluoromethyl)pyrazin-2-yl]amino}-1,2-thiazole-4-carboxamide]
IC50 [1]: > 20000 nM
IC50 [2]: 13 nM

Structure (SMILES): Cc1nsc(Nc2cnc(C(F)(F)F)cn2)c1C(=O)Nc1ccc(OCCN(C)C(=O)OC(C)(C)C)nc1 [Example 429, tert-Butyl methyl{2-[(5-{[(3-methyl-5-{[5-(trifluoromethyl)pyrazin-2-yl]amino}-1,2-thiazol-4-yl)carbonyl]amino}pyridin-2-yl)oxy]ethyl}carbannate]
IC50 [1]: > 20000 nM
IC50 [2]: 16 nM

Structure (SMILES): Cc1nsc(Nc2cnc(C(F)(F)F)cn2)c1C(=O)Nc1ccc(F)c(O[C@H]2CCN(CC(F)(F)F)C2)c1 [Example 416, N-(4-Fluoro-3-{[(35)-1-(2,2,2-trifluoroethyl)pyrrolidin-3-yl]oxy}phenyl)-3-methyl-5-{[5-(trifluoromethyl)pyrazin-2-yl]amino}-1,2-thiazole-4-carboxamide]
IC50 [1]: > 20000 nM
IC50 [2]: 4.2 nM

Structure (SMILES): Cc1nsc(Nc2cnccn2)c1C(=O)Nc1ccc(OCCCNC(=O)OC(C)(C)C)nc1 [Example 47, tert-Butyl (3-{[5-({[3-methyl-5-(pyrazin-2-ylamino)-1,2-thiazol-4-yl]carbonyl}-amino)pyridin-2-yl]oxy}propyl)carbamate]
IC50 [1]: ≥ 20000 nM
IC50 [2]: 3600 nM

Structure (SMILES): Cc1nsc(Nc2cnc(C(F)(F)F)cn2)c1C(=O)Nc1ccc(OCC2CCN(CC(F)F)CC2(F)F)nc1 (centres unmarked) [Example 401, N-(6-{[1-(2,2-difluoroethyl)-3,3-difluoropiperidin-4-yl]methoxy}pyridin-3-yl)-3-methyl-5-{[5-(trifluoromethyl)pyrazin-2-yl]amino}-1,2-thiazole-4-carboxamide]
IC50 [1]: > 20000 nM
IC50 [2]: 27 nM

Structure (SMILES): Cc1nsc(Nc2cnc(C(F)(F)F)cn2)c1C(=O)Nc1ccc(F)c(O[C@@H]2CCN(CCC(F)(F)F)C2)c1 [Example 414, N-(4-Fluoro-3-{[(3R)-1-(3,3,3-trifluoropropyl)pyrrolidin-3-yl]oxy}phenyl)-3-methyl-5-{[5-(trifluoromethyl)pyrazin-2-yl]amino}-1,2-thiazole-4-carboxamide]
IC50 [1]: > 20000 nM
IC50 [2]: 39 nM

Structure (SMILES): CCCN1C[C@H](F)[C@H](Oc2ccc(NC(=O)c3c(C)nsc3Nc3cnc(C(F)(F)F)cn3)cn2)C1 [Example 408, N-(6-{[(3R,4S)-4-Fluoro-1-propylpyrrolidin-3-yl]oxy}pyridin-3-yl)-3-methyl-5-{[5-(trifluoromethyl)pyrazin-2-yl]amino}-1,2-thiazole-4-carboxamide]
IC50 [1]: > 20000 nM
IC50 [2]: 3.1 nM

Structure (SMILES): CCN1CCC(Oc2ccc(NC(=O)c3c(C)nsc3Nc3cnc(C(F)(F)F)cn3)cn2)C(F)(F)C1 (centres unmarked) [Example 406, N-{6-[(1-Ethyl-3,3-difluoropiperidin-4-yl)oxy]pyridin-3-yl}-3-methyl-5-{[5-(trifluoromethyl)pyrazin-2-yl]amino}-1,2-thiazole-4-carboxamide]
IC50 [1]: > 20000 nM
IC50 [2]: 33 nM

Structure (SMILES): Cc1nsc(Nc2cnc3ccccc3n2)c1C(=O)Nc1cccc(C(=O)N2CCOCC2)c1 [Example 52, 3-Methyl-N-[3-(morpholin-4-ylcarbonyl)phenyl]-5-(quinoxalin-2-ylamino)-1,2-thiazole-4-carboxamide]
IC50 [1]: ≥ 20000 nM
IC50 [2]: 28 nM

Structure (SMILES): Cc1nsc(Nc2ccc(C#N)cn2)c1C(=O)Nc1ccc(OC2CCCN(CC(F)F)C2)nc1 (centres unmarked) [Example 39, 5-[(5-Cyanopyridin-2-yl)amino]-N-(6-{[1-(2,2-difluoroethyl)piperidin-3-yl]oxy}-pyridin-3-yl)-3-methyl-1,2-thiazole-4-carboxamide]
IC50 [1]: ≥ 20000 nM
IC50 [2]: 15 nM

More lines, now with the values ahead:

IC50 [1]: ≥ 20000 nM
IC50 [2]: 150 nM
Structure (SMILES): Cc1nsc(Nc2ccc(C#N)cn2)c1C(=O)Nc1ccc(OC2CCCN(CC(F)(F)F)C2)nc1 (centres unmarked) [Example 40, 5-[(5-Cyanopyridin-2-yl)amino]-3-methyl-N-(6-{[1-(2,2,2-trifluoroethyl)piperidin-3-yl]oxy}pyridin-3-yl)-1,2-thiazole-4-carboxamide]

IC50 [1]: > 20000 nM
IC50 [2]: 12000 nM
Structure (SMILES): CC(=O)Nc1ccc(NC(=O)c2c(C)nsc2Nc2ccc(C#N)cn2)cn1 [Example 435, N-(6-Acetamidopyridin-3-yl)-5-[(5-cyanopyridin-2-yl)amino]-3-methyl-1,2-thiazole-4-carboxamide]

IC50 [1]: ≥ 20000 nM
IC50 [2]: 29 nM
Structure (SMILES): Cc1nsc(Nc2cnc3ccccc3n2)c1C(=O)Nc1cccc(C(=O)OC(C)(C)C)c1 [Example 49, tert-Butyl 3-({[3-methyl-5-(quinoxalin-2-ylamino)-1,2-thiazol-4-yl]carbonyl}amino)-benzoate]

IC50 [1]: ≥ 20000 nM
IC50 [2]: 41 nM
Structure (SMILES): Cc1nsc(Nc2ccc(C#N)cn2)c1C(=O)Nc1ccc(OCCCNC(=O)OC(C)(C)C)nc1 [Example 46, tert-Butyl [3-({5-[({5-[(5-cyanopyridin-2-yl)amino]-3-methyl-1,2-thiazol-4-yl}-carbonyl)amino]pyridin-2-yl}oxy)propyl]carbamate]

IC50 [1]: > 20000 nM
IC50 [2]: 39 nM
Structure (SMILES): Cc1nsc(Nc2cnc(C(F)(F)F)cn2)c1C(=O)Nc1ccc(OCCN2CCC(F)(F)CC2)nc1 [Example 407, N-{6-[2-(4,4-Difluoropiperidin-1-yl)ethoxy]pyridin-3-yl}-3-methyl-5-{[5-(trifluoromethyl)pyrazin-2-yl]amino}-1,2-thiazole-4-carboxamide]

IC50 [1]: ≥ 20000 nM
IC50 [2]: 340 nM
Structure (SMILES): Cc1nsc(Nc2cnc3ccccc3n2)c1C(=O)Nc1cccc(C(=O)N[C@H](C(=O)OC(C)(C)C)[C@@H](C)OC(C)(C)C)c1 [Example 57, tert-Butyl O-tert-butyl-N-[3-({[3-methyl-5-(quinoxalin-2-ylamino)-1,2-thiazol-4 yl]carbonyl}amino)-benzoyl]threoninate]

IC50 [1]: > 20000 nM
IC50 [2]: 21 nM
Structure (SMILES): Cc1nsc(Nc2cnc(C(F)(F)F)cn2)c1C(=O)Nc1ccc(O[C@@H]2CN(CCC(F)(F)F)C[C@@H]2F)nc1 [Example 409, N-(6-{[(3R,4S)-4-Fluoro-1-(3,3,3-trifluoropropyl)pyrrolidin-3-yl]oxy}pyridin-3-yl)-3-methyl-5-{[5-(trifluoromethyl)pyrazin-2-yl]amino}-1,2-thiazole-4-carboxamide]

IC50 [1]: ≥ 20000 nM
IC50 [2]: 1200 nM
Structure (SMILES): Cc1nsc(Nc2cnc3ccccc3n2)c1C(=O)Nc1cccc(C(=O)N[C@@H](CCC(N)=O)C(=O)OC(C)(C)C)c1 [Example 56, tert-butyl N^2-[3-({[3-methyl-5-(quinoxalin-2-ylamino)-1,2-thiazol-4-yl]carbonyl}amino)-benzoyl]glutaminate]

IC50 [1]: > 20000 nM
IC50 [2]: 24 nM
Structure (SMILES): Cc1nsc(Nc2cnc(C(F)(F)F)cn2)c1C(=O)Nc1ccc(O[C@@H]2CN(CC(F)F)C[C@@H]2F)nc1 [Example 411, N-(6-{[(3R,4S)-1-(2,2-Difluoroethyl)-4-fluoropyrrolidin-3-yl]oxy}pyridin-3-yl)-3-methyl-5-{[5-(trifluoromethyl)pyrazin-2-yl]amino}-1,2-thiazole-4-carboxamide]

IC50 [1]: > 20000 nM
IC50 [2]: 81 nM
Structure (SMILES): Cc1nsc(Nc2cnc(C(F)(F)F)cn2)c1C(=O)Nc1ccc(F)c(OC[C@H]2CCCN(CC(F)F)C2)c1 [Example 400, N-(3-{[(3S)-1-(2,2-difluoroethyl)piperidin-3-yl]methoxy}-4-fluorophenyl)-3-methyl-5-{[5-(trifluoromethyl)pyrazin-2-yl]amino}-1,2-thiazole-4-carboxamide]

IC50 [1]: ≥ 20000 nM
IC50 [2]: 930 nM
Structure (SMILES): Cc1nsc(Nc2cnc3ccccc3n2)c1C(=O)Nc1cccc(C(=O)N2CCN(C(=O)OC(C)(C)C)CC2)c1 [Example 55, tert-Butyl 4-[3-({[3-methyl-5-(quinoxalin-2-ylamino)-1,2-thiazol-4-yl]carbonyl}amino)-benzoyl]piperazine-1-carboxylate]

IC50 [1]: ≥ 20000 nM
IC50 [2]: 15000 nM
Structure (SMILES): Cc1nsc(Nc2cc(C#N)ccn2)c1C(=O)Nc1ccc(OC2CCCNC2)nc1 (centres unmarked) [Example 35, 5-[(4-Cyanopyridin-2-yl)amino]-3-methyl-N-[6-(piperidin-3-yloxy)pyridin-3-yl]-1,2-thiazole-4-carboxamide]

IC50 [1]: > 20000 nM
IC50 [2]: 17 nM
Structure (SMILES): Cc1nsc(Nc2cnc(C(F)(F)F)cn2)c1C(=O)Nc1ccc(F)c(O[C@@H]2CCN(CC(F)(F)F)C2)c1 [Example 413, N-(4-Fluoro-3-{[(3R)-1-(2,2,2-trifluoroethyl)pyrrolidin-3-yl]oxy}phenyl)-3-methyl-5-{[5-(trifluoromethyl)pyrazin-2-yl]amino}-1,2-thiazole-4-carboxamide]

IC50 [1]: > 20000 nM
IC50 [2]: 10000 nM
Structure (SMILES): Cc1nsc(Nc2cnc(C(F)(F)F)cn2)c1C(=O)Nc1ccc(OC2CCNCC2)c(F)c1 [Example 431, N-[3-Fluoro-4-(piperidin-4-yloxy)phenyl]-3-methyl-5-{[5-(trifluoromethyl)pyrazin-2-yl]amino}-1,2-thiazole-4-carboxamide]
